Values quoted from earlier work as cited in article doi:10.1101/2023.04.03.535218, “Distributable, Metabolic PET Reporting of Tuberculosis” (bioRxiv, 2023).

Target: T1, OtsA^Sf (Escherichia coli, UniProt P31677)
T1 construct: C-terminally tagged, purified on Ni-NTA
T1 sequence (P31677 2-474): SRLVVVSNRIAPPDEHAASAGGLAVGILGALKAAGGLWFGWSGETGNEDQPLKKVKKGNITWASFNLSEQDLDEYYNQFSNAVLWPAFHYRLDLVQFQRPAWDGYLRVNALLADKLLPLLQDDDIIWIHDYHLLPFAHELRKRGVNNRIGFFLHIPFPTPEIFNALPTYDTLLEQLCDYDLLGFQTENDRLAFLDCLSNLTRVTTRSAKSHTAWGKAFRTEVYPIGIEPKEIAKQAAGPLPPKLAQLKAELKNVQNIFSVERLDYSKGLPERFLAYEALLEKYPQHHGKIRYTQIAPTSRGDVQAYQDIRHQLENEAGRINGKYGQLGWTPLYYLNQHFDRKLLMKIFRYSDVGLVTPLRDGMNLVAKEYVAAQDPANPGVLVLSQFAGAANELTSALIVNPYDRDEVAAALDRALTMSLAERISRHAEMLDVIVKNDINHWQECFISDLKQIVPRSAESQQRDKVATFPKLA
Assay: NADH-linked continuous assay (Methods)
Type: biochemical
Settings: co-substrate UDP-Glc; table note a (taken from Reference 41) is also set on this row, text presents it as own

O=P(O)(O)OC[C@H]1OC(O)[C@H](O)[C@@H](O)[C@@H]1O (stereo partly shown) [G6P]
Km: 4.9 ± 0.5 mM
